# Data as given in patent publication US20230381170A1, “METHOD FOR TREATING ALS/FTD THROUGH DEGRADATION OF RNA REPEAT EXPANSION” (University of Florida Research Foundation, Incorporated, priority 2020, published 2023).
# pKd: −log10 of the molar value. Like-named read-outs stand apart in the source and are kept apart here.
# Columns and labels:
# [1] = tested on: r(G2C4)8; assay: Biolayer interferometry (BLI) binding
# Procedure: (§1) Biolayer Interferometry (BLI). BLI studies were performed similarly as previously described (12) using an Octet RED96. Briefly, 5′-biotinylated nucleic acids were folded by heating at 95° C. for 4 min in 10 mM sodium phosphate buffer, pH 7, followed by slowly cooling to room temperature. Then, to the folded RNA were added the following components: 1.386 mL 1×DPBS (21-031-CV, Corning), 180 μL freshly prepared 1% (w/v) BSA, 36 μL 1% (v/v) Tween-20, and 18 μL DMSO (1% final concentration) in a final volume of 1.8 mL. The final concentration of RNA was 0.5 μM. Separately, serial dilutions of the compound of interest were prepared in the same buffer.
# (§2) Streptavidin sensors (SA, #18-5019, ForteBio) were equilibrated with buffer for 10 min at room temperature using 96-well black microplate (Greiner; Catalog #: 655209). The following time intervals were used during data acquisition (30° C. with shaking at 1000 rpm): baseline step, 180 s; loading of RNA, 900 s; washing, 180 s; association of compound, 1800 s; and dissociation of compound, 1800 s. The resulting curves were analyzed and processed using Octet Data Analysis software version 9.1 by subtracting the response of the sensors recorded upon incubation with solutions containing compound and no RNA (parallel reference). The data were then fitted assuming reversible binding using the entire time interval for association and dissociation using either 1:1 or the 2:1 heterogeneous binding curve fitting model. The reported Kd,n, kon,n and koff,n values represent the average of two independent experiments.
# [2] = tested on: r(G2C2)10; assay: Biolayer interferometry (BLI) binding
# Procedure: as §1, §2
# [3] = tested on: d(G4C2)8; assay: Biolayer interferometry (BLI) binding; conditions: for pKd: BLI
# Procedure: as §1, §2
# [4] = tested on: RAN translation of r(G4C2)66; assay: RAN translation assay in HEK293T cells; format: cell-based, human
# Procedure: RAN Translation Assay. Inhibition of RAN translation in HEK239T cells was completed as previously described (12). Briefly, HEK293T cells (6×10^6 cells) were seeded in growth medium and incubated at 37° C. overnight. Cells were co-transfected with 2 μg of a plasmid encoding r(G4C2)66-No ATG-NanoLuciferase and 1 μg SV40-Firefly luciferase plasmid with Lipofectamine 3000 (Life Technologies) per the manufacturer's protocols. Following transfection, the cells (˜8000/well) were plated in a clear bottom 384-well plate and incubated at 37° C. for 2 h. Compounds were added in growth medium such that the final concentration of DMSO was less than 1%. The G4C2-LNA and control-LNA (Table 3) were transfected with RNAiMax at a final concentration of 100 nM following transfection with RNAiMax (Life Technologies) per the manufacturer's recommended protocol. RAN and canonical translation was measured following 24 h treatment using a Dual-Luciferase® Reporter Assay System (Promega) following manufacturer's protocol. Experiments were performed as biological triplicates (n=3). Luminescence from Nano-Luciferase activity (RAN translation) was normalized to luminescence from firefly luciferase activity. This ratio for vehicle-treated samples was then set to 1 and the ratios for treated samples normalized accordingly.
# [5] = tested on: r(G2C2)4; assay: 1D NMR imino proton monitoring; format: binding; conditions: hairpin with fully paired stem
# Procedure: (§3) Preparation of MNR Samples. RNA constructs were purchased from GE Dharmacon, Inc. After deprotection and desalting, RNAs were dissolved in buffer comprising 10 mM sodium phosphates and 100 mM LiCl at pH 7.0 and reannealed by heating to 95° C. for 4 min followed by cooling to room temperature. Solvent consisted of H2O, to which 20 μL of D2O was added to provide a lock signal. Final concentrations of RNA were 100 μM for 1D NMR spectroscopy and 400 μM of RNA for 2D NMR spectroscopy. Dimeric derivatives 2 and 3 were dissolved in DMSO-d6 to 10 mM concentrations.
# (§4) NMR Spectroscopy. NMR spectra were acquired on samples in Shigemi tubes using Bruker Avance 600 and 700 MHz spectrometers equipped with cryoprobes. 1D spectra were recorded on free form RNA, to which 2 and 3 was added to final compound/RNA molar ratios of 0.5 and 1.0. 2D spectra were acquired with 400 ms mixing times on samples containing 3 at 1.0 compound/RNA molar ratio. In 1D and 2D NMR spectra, WATERGATE and excitation pulse sequences were used to suppress the water signal, respectively (53-55). Proton chemical shifts were referenced internally to 4,4-dimethyl-4-silapentane-1-sulfonic acid (DSS, 0.1 mM). 1D spectra were processed using MestreNOVA software. 2D spectra were processed using NMRPipe and assigned using SPARKY (56).
# [6] = tested on: r(G4C2)4; assay: 1D NMR imino proton monitoring; format: binding
# Procedure: as §3, §4
# [7] = tested on: Nup98; assay: Nup98 by structured illumination microscopy in patient-derived iPSNs; format: cell-based, human; conditions: 50 nM
# Procedure: Nuclei Isolation and Super Resolution Structured Illumination Microscopy. iPSC-derived spinal neurons were generated according to the previously published diMNs protocol (37). On day 15 and 18 of differentiation, […] G4C2 repeat-targeting ASO was added to media as previously described (59). For compound treatment, 50 nM 7 was added to media on days 15, 18, 21, 24, 27, and 30 of differentiation. On day 32 of differentiation, nuclei isolation was performed using the Nuclei Pure Prep Nuclei Isolation Kit (Sigma Aldrich) as previously described (68). Isolated nuclei were spun onto collagen coated slides and immunostained following standard protocols as previously described (68). Primary antibodies: 1:250 rat anti-Nup98 (Abcam), 1:500 chicken anti-NeuN (Millipore); secondary antibodies: […] Alexa 488 (Invitrogen), goat anti-chicken Alexa 647 (Invitrogen). NeuN positive nuclei were imaged by super resolution structured illumination microscopy (SIM) using a Zeiss ELYRA S.1 as previously described (14). Next, 50 nuclei per iPSC line/treatment group were analyzed using the 3D suite plugin in FIJI. The average number of spots from the 50 nuclei for each cell line and treatment group was used for statistical analyses. […] Quantification is presented as violin plots to represent the full variability of all nuclei analyzed.
# [8] = tested on: transcripts containing short, non-pathogenic r(G4C2) repeats; assay: Off-target RT-qPCR of genes with short r(G4C2) repeats in patient-derived LCL; format: cell-based, human; conditions: 500 nM
# [9] = tested on: transcriptome of iPSCs derived from healthy donors; assay: RNA-seq in iPSCs from healthy donors; format: cell-based, human; conditions: 50 nM
Structure (SMILES),selective for r(G4C2)8 over r(G2C4)8 [1] [fold],"pKd ([1]; BLI, read-out: Kd, 1)",selective for r(G4C2)8 over r(G2C2)10 [2] [fold],"pKd ([2]; BLI, read-out: Kd, 1)",selective for r(G4C2)8 over d(G4C2)8 [3] [fold],"pKd ([3]; read-out: Kd, 1)","pKd ([3]; read-out: Kd, 2)",RAN translation of r(G4C2)66 (Nano-luciferase activity) [4],changes in 1D NMR spectrum upon addition of compound [5],"complex formation, imino proton region 1D NMR [6]",Nup98 abundance [7],abundance of eight transcripts with short r(G4C2) repeats [8],changes in the transcriptome [9]
Cc1c2ccncc2c(C)c2c1[nH]c1ccc(OCCOCCOCCNCCOCCOCCOc3ccc4[nH]c5c(C)c6ccncc6c(C)c5c4c3)cc12 [Compound 3],~10,6.40,~200,6.10,~225,6.05,5.44,inhibited,no changes were observed,verified,,,
CCOC(=O)C1=C(Nc2ccccc2)S/C(=C\c2ccc(OCCOCCOCCOCCNC(=O)CCC(=O)N(CCOCCOCCOc3ccc4[nH]c5c(C)c6ccncc6c(C)c5c4c3)CCOCCOCCOc3ccc4[nH]c5c(C)c6ccncc6c(C)c5c4c3)c(O)c2)C1=O [Compound 7],,,,,,,,,,,reversed the loss of Nup98,No decrease,no changes
